Experimental findings from ChEMBL document CHEMBL5316325, “Design and Synthesis of 3-Hydroxy-pyridin-4(1H)-ones-Ciprofloxacin Conjugates as Dual Antibacterial and Antibiofilm Agents against Pseudomonas aeruginosa” (J Med Chem, 2023) are described below.

Common to all, as to assay type: functional
Test [1] concerns Pseudomonas aeruginosa. The test is described as follows: Antibiofilm activity against Pseudomonas aeruginosa PAO1 in ABTGC medium assessed as biofilm biomass at 1/4 times MIC incubated for 24 hrs by crystal violet staining based assay relative to control.
The subject of test [2] is Pseudomonas aeruginosa. As to the kind of experiment: Antibacterial activity against Pseudomonas aeruginosa ATCC 27853 in MHB medium assessed as bacterial growth inhibition by CLSI based broth microdilution method. Background: Broth dilution looks for growth in wells or tubes with falling amounts of substance.
Test [3] concerns Pseudomonas aeruginosa. The test is described as follows: Antibacterial activity against Pseudomonas aeruginosa PAO1 in MHB medium assessed as bacterial growth inhibition by CLSI based broth microdilution method.
Test [4] has as its system Pseudomonas aeruginosa. As to the kind of experiment: Antibacterial activity against Pseudomonas aeruginosa FB in MHB medium assessed as bacterial growth inhibition by CLSI based broth microdilution method.
Test [5] concerns Pseudomonas aeruginosa. As to the kind of experiment: Antibacterial activity against Pseudomonas aeruginosa 1167 in MHB medium assessed as bacterial growth inhibition by CLSI based broth microdilution method.
Test [6] deals with Pseudomonas aeruginosa. As to the kind of experiment: Antibacterial activity against Pseudomonas aeruginosa 1121 in MHB medium assessed as bacterial growth inhibition by CLSI based broth microdilution method.
The subject of test [7] is Pseudomonas aeruginosa. The test is described as follows: Antibacterial activity against Pseudomonas aeruginosa 1129 in MHB medium assessed as bacterial growth inhibition by CLSI based broth microdilution method.
For test [8], the system named is Escherichia coli. The test is described as follows: Antibacterial activity against Escherichia coli ATCC 25922 in MHB medium assessed as bacterial growth inhibition by CLSI based broth microdilution method.
Test [9] relates to Klebsiella pneumoniae. As to the kind of experiment: Antibacterial activity against Klebsiella pneumoniae ATCC 700603 in MHB medium assessed as bacterial growth inhibition by CLSI based broth microdilution method.
The test system of test [10] is Staphylococcus aureus. The test is described as follows: Antibacterial activity against Staphylococcus aureus ATCC 25923 in MHB medium assessed as bacterial growth inhibition by CLSI based broth microdilution method.
Test [11] has as its system Staphylococcus aureus. The test is described as follows: Antibacterial activity against methicillin-resistant Staphylococcus aureus ATCC 515992 in MHB medium assessed as bacterial growth inhibition by CLSI based broth microdilution method.
Test [12] deals with Pseudomonas aeruginosa. As to the kind of experiment: Antibacterial activity against Pseudomonas aeruginosa PAO1 in ABTGC medium assessed as bacterial growth inhibition.
In test [13] the test system is Pseudomonas aeruginosa. As to the kind of experiment: Antibiofilm activity against Pseudomonas aeruginosa PAO1 in ABTGC medium assessed as biofilm biomass at 1/2 times MIC incubated for 24 hrs by crystal violet staining based assay relative to control.
The test system of test [14] is Pseudomonas aeruginosa. As to the kind of experiment: Antibiofilm activity against Pseudomonas aeruginosa PAO1 in ABTGC medium assessed as biofilm biomass at MIC incubated for 24 hrs by crystal violet staining based assay relative to control.

Structures are written as SMILES. Converted amounts (≈) assume the structure as drawn.

Regarding `Cn1cc(O)c(=O)cc1CNC(=O)CCC(=O)N1CCN(c2cc3c(cc2F)c(=O)c(C(=O)O)cn3C2CC2)CC1`, the results for the Activity in test [1], in test [13] and in test [14] were 29.2%, 110.3% and 55.3%, respectively. Also, the MIC stood at 1.76 µM (≈ 0.999 µg/mL) in test [2]; 0.88 µM (≈ 0.499 µg/mL) in [3]; 1.76 µM (≈ 0.999 µg/mL) in [4]; 0.88 µM (≈ 0.499 µg/mL) in [5]; 1.76 µM (≈ 0.999 µg/mL) in test [6]; 3.52 µM (≈ 2 µg/mL) in test [7]. The MIC was 0.06 µM (≈ 0.0341 µg/mL) in [8]; 3.52 µM (≈ 2 µg/mL) in [9]; 7.05 µM (≈ 4 µg/mL) in test [10]; > 200 µM in test [11]; 7.05 µM (≈ 4 µg/mL) in test [12].
Turning to `Cc1cc(=O)c(O)cn1CCCNC(=O)CCC(=O)N1CCN(c2cc3c(cc2F)c(=O)c(C(=O)O)cn3C2CC2)CC1`, the Activity was determined as 116.3% in [1], 78.2% in test [13] and 92.1% in test [14]. In addition, the MIC in [2] is 6.72 µM (≈ 4 µg/mL); in test [3], 3.36 µM (≈ 2 µg/mL); in [4] it was 3.36 µM (≈ 2 µg/mL); in test [5] it was 3.36 µM (≈ 2 µg/mL); in [6], 6.72 µM (≈ 4 µg/mL); in [7], 6.36 µM (≈ 3.79 µg/mL). For the same compound, the MIC in [8] was 0.42 µM (≈ 0.25 µg/mL); in test [9], 13.4 µM (≈ 8 µg/mL); in test [10], 6.72 µM (≈ 4 µg/mL); in test [11] it was > 200 µM; in test [12], 53.7 µM (≈ 32 µg/mL).
Turning to `Cc1cc(=O)c(O)c(CNC(=O)CCCCC(=O)N2CCN(c3cc4c(cc3F)c(=O)c(C(=O)O)cn4C3CC3)CC2)n1C`, the Activity in [1] was 27%; in [13], 86.3%; in [14], 23.3%. Moreover, the MIC in test [2] is 3.28 µM (≈ 2 µg/mL); in [3], 1.64 µM (≈ 1 µg/mL); in [4], 3.28 µM (≈ 2 µg/mL); in test [5], 3.28 µM (≈ 2 µg/mL); in test [6] it was 3.28 µM (≈ 2 µg/mL); in test [7], 6.56 µM (≈ 4 µg/mL). The MIC was 0.05 µM (≈ 0.0305 µg/mL) in [8]; 6.56 µM (≈ 4 µg/mL) in test [9]; 13.1 µM (≈ 8 µg/mL) in [10]; > 200 µM in [11]; 13.1 µM (≈ 8 µg/mL) in test [12].
For the compound `Cc1cc(=O)c(O)c(CNC(=O)CCC(CCC(=O)NCc2c(O)c(=O)cc(C)n2C)(CCC(=O)NCc2c(O)c(=O)cc(C)n2C)NC(=O)CCCC(=O)N2CCN(c3cc4c(cc3F)c(=O)c(C(=O)O)cn4C3CC3)CC2)n1C`, the Activity in test [1] is 26.1%; in test [13], 79.3%; in [14], 12.7%. Also, the MIC in test [2] was determined as 7.11 µM (≈ 8 µg/mL); in [3] it was 1.78 µM (≈ 2 µg/mL); in test [4], 3.55 µM (≈ 3.99 µg/mL); in [5] it was 1.78 µM (≈ 2 µg/mL); in test [6] it was 3.55 µM (≈ 3.99 µg/mL); in test [7], 7.11 µM (≈ 8 µg/mL). Moreover, the MIC is 0.22 µM (≈ 0.248 µg/mL) in test [8]; 14.2 µM (≈ 16 µg/mL) in test [9]; 14.2 µM (≈ 16 µg/mL) in [10]; > 200 µM in [11]; 14.2 µM (≈ 16 µg/mL) in test [12].
For the compound `Cn1cc(O)c(=O)cc1Cn1cc(CCC(=O)N2CCN(c3cc4c(cc3F)c(=O)c(C(=O)O)cn4C3CC3)CC2)nn1`, the results for the Activity in test [1], in test [13] and in test [14] were 99.4%, 133.7% and 52.1%, respectively. Also, the MIC was 108 µM (≈ 64 µg/mL) in [2]; 27.1 µM (≈ 16 µg/mL) in test [3]; 108 µM (≈ 64 µg/mL) in test [4]; 54.1 µM (≈ 32 µg/mL) in test [5]; 108 µM (≈ 64 µg/mL) in [6]; 108 µM (≈ 64 µg/mL) in test [7]. Besides, the MIC in test [8] was 3.38 µM (≈ 2 µg/mL); in test [9], > 200 µM; in [10] it was > 200 µM; in test [11], > 200 µM; in test [12], > 200 µM.
On to `Cn1cc(O)c(=O)cc1CNC(=O)CCCCC(=O)N1CCN(c2cc3c(cc2F)c(=O)c(C(=O)O)cn3C2CC2)CC1`, for which the Activity in test [1] worked out at 24.9%; in test [13] it was 110.3%; in test [14] it was 86.4%. Besides, the MIC was determined as 3.36 µM (≈ 2 µg/mL) in test [2]; 0.84 µM (≈ 0.5 µg/mL) in test [3]; 3.36 µM (≈ 2 µg/mL) in test [4]; 1.68 µM (≈ 1 µg/mL) in test [5]; 1.68 µM (≈ 1 µg/mL) in [6]; 6.72 µM (≈ 4 µg/mL) in [7]. Moreover, the MIC in [8] is 0.1 µM (≈ 0.0596 µg/mL); in test [9], 6.72 µM (≈ 4 µg/mL); in [10], 13.4 µM (≈ 8 µg/mL); in test [11], > 200 µM; in [12], 6.72 µM (≈ 4 µg/mL).
As for `O=C(CCC(=O)N1CCN(c2cc3c(cc2F)c(=O)c(C(=O)O)cn3C2CC2)CC1)NCc1cc(=O)c(O)c[nH]1`, the results for the Activity in test [1], in [13] and in test [14] were 19.9%, 98.8% and 169.8%, respectively. In addition, the MIC in [2] amounted to 7.23 µM (≈ 4 µg/mL); in test [3] it was 1.81 µM (≈ 1 µg/mL); in [4] it was 7.23 µM (≈ 4 µg/mL); in test [5], 3.61 µM (≈ 2 µg/mL); in test [6] it was 3.61 µM (≈ 2 µg/mL); in [7], 7.23 µM (≈ 4 µg/mL). The MIC in [8] was 0.23 µM (≈ 0.127 µg/mL); in test [9] it was 14.4 µM (≈ 8 µg/mL); in test [10], 3.61 µM (≈ 2 µg/mL); in test [11] it was > 200 µM; in test [12], 14.4 µM (≈ 8 µg/mL).
Take `Cc1cc(=O)c(O)c(CNC(=O)CCC(CCC(=O)NCc2c(O)c(=O)cc(C)n2C)(CCC(=O)NCc2c(O)c(=O)cc(C)n2C)NC(=O)CCCCC(=O)N2CCN(c3cc4c(cc3F)c(=O)c(C(=O)O)cn4C3CC3)CC2)n1C`: the Activity came to 158.1% in test [1], 9.6% in test [13] and 15.1% in test [14]. For the same compound, the MIC in test [2] was determined as 7.02 µM (≈ 8 µg/mL); in test [3], 3.51 µM (≈ 4 µg/mL); in test [4] it was 14 µM (≈ 16 µg/mL); in test [5], 7.02 µM (≈ 8 µg/mL); in test [6], 14 µM (≈ 16 µg/mL); in test [7], 28.1 µM (≈ 32 µg/mL). Besides, the MIC in test [8] was 0.22 µM (≈ 0.251 µg/mL); in test [9] it was 14 µM (≈ 16 µg/mL); in test [10] it was 14 µM (≈ 16 µg/mL); in test [11], > 200 µM; in [12], 56.2 µM (≈ 64 µg/mL).
Take `Cc1cc(=O)c(O)c(CNC(=O)CCCCCCC(=O)N2CCN(c3cc4c(cc3F)c(=O)c(C(=O)O)cn4C3CC3)CC2)n1C`: the Activity worked out at 141.1% in test [1], 114.9% in test [13] and 99.9% in [14]. The MIC in test [2], in [3], in test [4], in test [5], in [6] and in [7] was > 200 µM each time. Moreover, the MIC was 6.27 µM (≈ 4 µg/mL) in test [8]; > 200 µM in test [9]; 50.2 µM (≈ 32 µg/mL) in [10]; > 200 µM in [11]; 128 µM (≈ 81.6 µg/mL) in test [12].
In the case of `Cn1cc(O)c(=O)cc1CNC(=O)CCCC(=O)N1CCN(c2cc3c(cc2F)c(=O)c(C(=O)O)cn3C2CC2)CC1`, the Activity in test [1] was found to be 23.4%; in test [13], 189%; in test [14], 75.3%. For the same compound, the MIC in test [2] turned out to be 3.44 µM (≈ 2 µg/mL); in test [3], 0.86 µM (≈ 0.5 µg/mL); in test [4], 3.44 µM (≈ 2 µg/mL); in test [5], 1.72 µM (≈ 1 µg/mL); in test [6], 3.44 µM (≈ 2 µg/mL); in [7], 6.88 µM (≈ 4 µg/mL). Further, the MIC was 0.11 µM (≈ 0.064 µg/mL) in test [8]; 6.72 µM (≈ 3.91 µg/mL) in test [9]; 13.8 µM (≈ 8 µg/mL) in test [10]; > 200 µM in test [11]; 13.8 µM (≈ 8 µg/mL) in [12].

The MIC is the lowest concentration that inhibits growth of the organism.
